The subject of this assay is L1210 leukemia ip in BDF1 mice, survival T/C. Put plainly: NCI In Vivo Anticancer Drug Screen. Data for tumor model L1210 Leukemia (intraperitoneal) in B6D2F1 (BDF1) mice. Conditions: higher = longer survival. In a few lines:
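Each compound was tested against a transplantable tumor grown in mice. The endpoint was survival, with treated animals benchmarked against vehicle controls as a simple ratio.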

Setting [1] is: endpoint: mean survival time, dose: 100.0 mg/kg/injection, schedule: Q04DX003 (ip), vehicle: saline with Tween-80.
Setting [2] is: endpoint: mean survival time, dose: 100.0 mg/kg/injection, schedule: Q04DX003 (ip), vehicle: Klucel (hydroxypropylcellulose) (HPC).
Setting [3] is: endpoint: mean survival time, dose: 200.0 mg/kg/injection, schedule: Q04DX003 (ip), vehicle: Klucel (hydroxypropylcellulose) (HPC).
[4] abbreviates: endpoint: mean survival time, dose: 200.0 mg/kg/injection, schedule: Q01DX001 (ip), vehicle: saline.
[5] abbreviates: endpoint: mean survival time, dose: 12.5 mg/kg/injection, schedule: Q01DX009 (ip), vehicle: saline.
The mark [6] stands for this setting: endpoint: mean survival time, dose: 25.0 mg/kg/injection, schedule: Q01DX009 (ip), vehicle: saline.
The mark [7] stands for this setting: endpoint: mean survival time, dose: 50.0 mg/kg/injection, schedule: Q01DX009 (ip), vehicle: saline.
[8] abbreviates: endpoint: mean survival time, dose: 50.0 mg/kg/injection, schedule: Q04DX003 (ip), vehicle: saline.

From PubChem BioAssay AID248 (DTP/NCI, 2004) come the findings set out here.

Several values for one entry are separate records, joined by “and”; a condition that tells them apart may be missing. Equal entries are not always repeated. Inconclusive results and toxic doses are left out.

With `CC(=O)OC1=CCCCC1c1ccccc1` (stereo not drawn), the T/C runs as follows: (endpoint: mean survival time, dose: 100.0 mg/kg/injection, schedule: Q01DX009 (ip), vehicle: saline with Tween-80) 103 % of control; under setting [1], 98 % of control; (endpoint: mean survival time, dose: 200.0 mg/kg/injection, schedule: Q01DX009 (ip), vehicle: saline with Tween-80) 111 % of control; (endpoint: mean survival time, dose: 200.0 mg/kg/injection, schedule: Q04DX003 (ip), vehicle: saline with Tween-80) 98 % of control; (endpoint: mean survival time, dose: 400.0 mg/kg/injection, schedule: Q01DX009 (ip), vehicle: saline with Tween-80) 103 % of control; (endpoint: mean survival time, dose: 400.0 mg/kg/injection, schedule: Q04DX003 (ip), vehicle: saline with Tween-80) 109 % of control.
As for `CC(=O)Nc1ccc(S(=O)(=O)F)cc1[N+](=O)[O-]`, the T/C reads like this: (endpoint: mean survival time, dose: 100.0 mg/kg/injection, schedule: Q01DX009 (ip), vehicle: saline sonified) 93 % of control; under setting [2], 97 % of control; (endpoint: mean survival time, dose: 200.0 mg/kg/injection, schedule: Q01DX009 (ip), vehicle: saline sonified) 114 % of control; under setting [3], 93 % of control; (endpoint: mean survival time, dose: 400.0 mg/kg/injection, schedule: Q01DX009 (ip), vehicle: saline sonified) 101 % of control; (endpoint: mean survival time, dose: 400.0 mg/kg/injection, schedule: Q04DX003 (ip), vehicle: Klucel (hydroxypropylcellulose) (HPC)) 93 % of control.
`COP(=O)(O)Oc1ccccc1`: the T/C is 100 % of control (endpoint: mean survival time, dose: 87.5 mg/kg/injection, schedule: Q01DX009 (ip), vehicle: saline with Tween-80) and 100 % of control (endpoint: mean survival time, dose: 175.0 mg/kg/injection, schedule: Q01DX009 (ip), vehicle: saline with Tween-80).
For the molecule `Cn1cc([N+](=O)[O-])c2ccccc2c1=O`, the T/C under setting [2] is 109 % of control and the T/C under setting [3] is 120 % of control.
On to `C=CCOP(=O)(OCC=C)c1ccccc1`, for which the T/C reads like this: (endpoint: mean survival time, dose: 55.0 mg/kg/injection, schedule: Q01DX Z (ip), vehicle: methylcellulose (MC)) 89 % of control; (endpoint: mean survival time, dose: 83.0 mg/kg/injection, schedule: Q01DX Z (ip), vehicle: methylcellulose (MC)) 98 % of control; (endpoint: mean survival time, dose: 125.0 mg/kg/injection, schedule: Q01DX Z (ip), vehicle: methylcellulose (MC)) 93 % of control.
Consider `O=c1nc(NC(=S)Nc2ccn(C3OC(CO)C(O)C3O)c(=O)n2)ccn1C1OC(CO)C(O)C1O` (stereo not drawn), for which the T/C reads like this: (endpoint: mean survival time, dose: 50.0 mg/kg/injection, schedule: Q01DX001 (ip), vehicle: other) 104 % of control; (endpoint: mean survival time, dose: 50.0 mg/kg/injection, schedule: Q01DX001 (ip), vehicle: water) 103 % of control and 106 % of control and 114 % of control; (endpoint: mean survival time, dose: 100.0 mg/kg/injection, schedule: Q01DX001 (ip), vehicle: other) 110 % of control; (endpoint: mean survival time, dose: 100.0 mg/kg/injection, schedule: Q01DX001 (ip), vehicle: water) 106 % of control; (endpoint: mean survival time, dose: 100.0 mg/kg/injection, schedule: Q01DX005 (ip), vehicle: saline) 168 % of control and 188 % of control; (endpoint: mean survival time, dose: 200.0 mg/kg/injection, schedule: Q01DX001 (ip), vehicle: other) 109 % of control and 116 % of control. Further, the T/C under setting [4] is 158 % of control; the T/C (endpoint: mean survival time, dose: 200.0 mg/kg/injection, schedule: Q01DX005 (ip), vehicle: saline) is 206 % of control and 218 % of control; the T/C (endpoint: mean survival time, dose: 400.0 mg/kg/injection, schedule: Q01DX001 (ip), vehicle: other) is 193 % of control; the T/C (endpoint: mean survival time, dose: 400.0 mg/kg/injection, schedule: Q01DX001 (ip), vehicle: saline) was 217 % of control; the T/C (endpoint: mean survival time, dose: 400.0 mg/kg/injection, schedule: Q01DX001 (ip), vehicle: water) is 171 % of control and 215 % of control; the T/C (endpoint: mean survival time, dose: 600.0 mg/kg/injection, schedule: Q01DX001 (ip), vehicle: other) was 163 % of control. In addition, the T/C is 452 % of control (endpoint: mean survival time, dose: 800.0 mg/kg/injection, schedule: Q01DX001 (ip), vehicle: saline); 196 % of control and 177 % of control and 361 % of control (endpoint: mean survival time, dose: 800.0 mg/kg/injection, schedule: Q01DX001 (ip), vehicle: water); 368 % of control (endpoint: mean survival time, dose: 1600.0 mg/kg/injection, schedule: Q01DX001 (ip), vehicle: water); 180 % of control (endpoint: median survival time, dose: 12.5 mg/kg/injection, schedule: Q03HX024 (ip), vehicle: saline); 180 % of control (endpoint: median survival time, dose: 25.0 mg/kg/injection, schedule: Q03HX024 (ip), vehicle: saline); 295 % of control (endpoint: median survival time, dose: 50.0 mg/kg/injection, schedule: Q03HX024 (ip), vehicle: saline). For the same molecule, the T/C is, setting by setting: (endpoint: median survival time, dose: 100.0 mg/kg/injection, schedule: Q01DX009 (ip), vehicle: saline) 190 % of control; (endpoint: median survival time, dose: 200.0 mg/kg/injection, schedule: Q01DX001 (oral), vehicle: saline) 104 % of control; (endpoint: median survival time, dose: 200.0 mg/kg/injection, schedule: Q01DX009 (ip), vehicle: saline) 152 % of control; (endpoint: median survival time, dose: 200.0 mg/kg/injection, schedule: Q04DX003 (ip), vehicle: saline) 195 % of control; (endpoint: median survival time, dose: 400.0 mg/kg/injection, schedule: Q01DX001 (ip), vehicle: saline) 185 % of control; (endpoint: median survival time, dose: 400.0 mg/kg/injection, schedule: Q01DX001 (oral), vehicle: saline) 104 % of control. The T/C (endpoint: median survival time, dose: 400.0 mg/kg/injection, schedule: Q04DX003 (ip), vehicle: saline) is 233 % of control; the T/C (endpoint: median survival time, dose: 800.0 mg/kg/injection, schedule: Q01DX001 (ip), vehicle: saline) is 233 % of control; the T/C (endpoint: median survival time, dose: 800.0 mg/kg/injection, schedule: Q01DX001 (oral), vehicle: saline) was 100 % of control; the T/C (endpoint: median survival time, dose: 800.0 mg/kg/injection, schedule: Q04DX003 (ip), vehicle: saline) was 342 % of control; the T/C (endpoint: median survival time, dose: 1600.0 mg/kg/injection, schedule: Q01DX001 (ip), vehicle: saline) was 204 % of control.
For `CC(C)=CCC(O)(c1ccccc1)C(C)CN(C)C` (stereo not drawn), the T/C is, setting by setting: under setting [5], 94 % of control; (endpoint: mean survival time, dose: 12.5 mg/kg/injection, schedule: Q04DX003 (ip), vehicle: saline) 94 % of control; under setting [6], 106 % of control and 103 % of control; (endpoint: mean survival time, dose: 25.0 mg/kg/injection, schedule: Q04DX003 (ip), vehicle: saline) 94 % of control; (endpoint: mean survival time, dose: 50.0 mg/kg/injection, schedule: Q01DX009 (ip), vehicle: Klucel (hydroxypropylcellulose) (HPC)) 100 % of control; under setting [7], 101 % of control and 96 % of control. For the same molecule, the T/C was 118 % of control under setting [8]; 97 % of control (endpoint: mean survival time, dose: 100.0 mg/kg/injection, schedule: Q01DX009 (ip), vehicle: Klucel (hydroxypropylcellulose) (HPC)); 98 % of control (endpoint: mean survival time, dose: 100.0 mg/kg/injection, schedule: Q01DX009 (ip), vehicle: saline); 95 % of control (endpoint: mean survival time, dose: 200.0 mg/kg/injection, schedule: Q01DX009 (ip), vehicle: Klucel (hydroxypropylcellulose) (HPC)).
In the case of `NC(=O)CC[n+]1ccccc1`, the T/C by setting is: under setting [5], 97 % of control; under setting [6], 93 % of control; under setting [7], 96 % of control; under setting [8], 105 % of control.
For `COc1ccc(OC)c2c(=O)cc(C(=O)O)[nH]c12`, the T/C (endpoint: mean survival time, dose: 50.0 mg/kg/injection, schedule: Q01DX001 (ip), vehicle: saline) was 98 % of control; the T/C (endpoint: mean survival time, dose: 100.0 mg/kg/injection, schedule: Q01DX001 (ip), vehicle: saline) is 97 % of control; the T/C under setting [4] was 95 % of control.
`CC1CCCC(CN=Cc2ccc(O)cc2O)[N-]1.CC1CCCC(CN=Cc2ccc(O)cc2O)[N-]1.[Ni+2]` (stereo not drawn): the T/C (endpoint: mean survival time, dose: 25.0 mg/kg/injection, schedule: Q04DX003 (ip), vehicle: saline with Tween-80) is 101 % of control; the T/C (endpoint: mean survival time, dose: 50.0 mg/kg/injection, schedule: Q04DX003 (ip), vehicle: saline with Tween-80) is 103 % of control; the T/C under setting [1] was 98 % of control.
